The values below are quoted from earlier work in patent US6821974B2, “Stable pharmaceutical compositions” (Barbeau Pharma, Inc, priority 2002, dated 2004).

For series [1] the following is noted: 20 mg/ml sterile injection solutions.

Molecules are shown by their SMILES. Where two headings read alike, the source gives them in different places.

`NNc1nncc2ccccc12` [Hydralazine, 1-hydrazinophthalazine]: the “storage time after which submicron particles appear” value in series [1] is on record as 6-12 months. Moreover, under “given intravenously”, the onset of action was 10 to 20 min. Under “in vivo”, the duration of action was 3 to 4 h, the maximum hypotensive effect was 10 to 80 min and the onset of action is 10 to 30 min.
